Assays:
Assay in all cases: biochemical
Set-up in all cases: KINOMEscan competition binding, DNA-tagged kinase against immobilised ligand, qPCR read-out
Details in all cases: read-out: Percent Control
[1] = molecular target: BMPR2 (Homo sapiens, UniProt Q13873)
[2] = molecular target: DSTYK (Homo sapiens, UniProt Q6XUX3)
[3] = molecular target: OXSR1 (Homo sapiens, UniProt O95747)
[4] = molecular target: SGK1 (Homo sapiens, UniProt O00141)
[5] = molecular target: T1, ADRBK2 (Homo sapiens, UniProt P35626)
T1 construct: gene GRK3

[6] = molecular target: PRKG1 (Homo sapiens, UniProt Q13976)
[7] = molecular target: T2, RSK1(Kin.Dom.1-N-terminal) (Homo sapiens, UniProt Q15418)
T2 construct: gene RPS6KA1; Kin.Dom.1 N-terminal

[8] = molecular target: DCLK2 (Homo sapiens, UniProt Q8N568)
[9] = molecular target: EPHA4 (Homo sapiens, UniProt P54764)
[10] = molecular target: MAPK11 (Homo sapiens, UniProt Q15759)
[11] = molecular target: EPHA1 (Homo sapiens, UniProt P21709)
[12] = molecular target: IRAK4 (Homo sapiens, UniProt Q9NWZ3)
[13] = molecular target: CDK17 (Homo sapiens, UniProt Q00537)
[14] = molecular target: NEK10 (Homo sapiens, UniProt Q6ZWH5)
[15] = molecular target: MAPK1 (Homo sapiens, UniProt P28482)
[16] = molecular target: EPHA8 (Homo sapiens, UniProt P29322)
[17] = molecular target: STK32C (Homo sapiens, UniProt Q86UX6)
[18] = molecular target: WEE1 (Homo sapiens, UniProt P30291)
[19] = molecular target: MARK3 (Homo sapiens, UniProt P27448)
[20] = molecular target: T3, ZAK (Homo sapiens, UniProt Q9NYL2)
T3 construct: gene MAP3K20

Chain of CDK17 (Q00537 whole entry): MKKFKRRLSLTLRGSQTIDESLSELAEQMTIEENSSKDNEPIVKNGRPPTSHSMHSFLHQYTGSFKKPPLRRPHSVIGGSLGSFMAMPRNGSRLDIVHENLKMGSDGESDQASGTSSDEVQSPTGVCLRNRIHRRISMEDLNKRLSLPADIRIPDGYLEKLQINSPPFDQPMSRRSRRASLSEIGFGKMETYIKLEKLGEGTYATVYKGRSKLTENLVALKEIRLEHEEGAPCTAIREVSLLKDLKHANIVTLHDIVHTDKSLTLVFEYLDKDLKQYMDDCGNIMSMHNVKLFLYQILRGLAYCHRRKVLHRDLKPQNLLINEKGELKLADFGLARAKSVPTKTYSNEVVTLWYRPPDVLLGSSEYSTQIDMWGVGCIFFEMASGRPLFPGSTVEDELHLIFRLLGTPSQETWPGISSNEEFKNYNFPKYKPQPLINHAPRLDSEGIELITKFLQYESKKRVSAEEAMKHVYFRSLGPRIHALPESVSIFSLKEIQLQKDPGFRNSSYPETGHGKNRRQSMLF
Chain of EPHA1 (P21709 whole entry): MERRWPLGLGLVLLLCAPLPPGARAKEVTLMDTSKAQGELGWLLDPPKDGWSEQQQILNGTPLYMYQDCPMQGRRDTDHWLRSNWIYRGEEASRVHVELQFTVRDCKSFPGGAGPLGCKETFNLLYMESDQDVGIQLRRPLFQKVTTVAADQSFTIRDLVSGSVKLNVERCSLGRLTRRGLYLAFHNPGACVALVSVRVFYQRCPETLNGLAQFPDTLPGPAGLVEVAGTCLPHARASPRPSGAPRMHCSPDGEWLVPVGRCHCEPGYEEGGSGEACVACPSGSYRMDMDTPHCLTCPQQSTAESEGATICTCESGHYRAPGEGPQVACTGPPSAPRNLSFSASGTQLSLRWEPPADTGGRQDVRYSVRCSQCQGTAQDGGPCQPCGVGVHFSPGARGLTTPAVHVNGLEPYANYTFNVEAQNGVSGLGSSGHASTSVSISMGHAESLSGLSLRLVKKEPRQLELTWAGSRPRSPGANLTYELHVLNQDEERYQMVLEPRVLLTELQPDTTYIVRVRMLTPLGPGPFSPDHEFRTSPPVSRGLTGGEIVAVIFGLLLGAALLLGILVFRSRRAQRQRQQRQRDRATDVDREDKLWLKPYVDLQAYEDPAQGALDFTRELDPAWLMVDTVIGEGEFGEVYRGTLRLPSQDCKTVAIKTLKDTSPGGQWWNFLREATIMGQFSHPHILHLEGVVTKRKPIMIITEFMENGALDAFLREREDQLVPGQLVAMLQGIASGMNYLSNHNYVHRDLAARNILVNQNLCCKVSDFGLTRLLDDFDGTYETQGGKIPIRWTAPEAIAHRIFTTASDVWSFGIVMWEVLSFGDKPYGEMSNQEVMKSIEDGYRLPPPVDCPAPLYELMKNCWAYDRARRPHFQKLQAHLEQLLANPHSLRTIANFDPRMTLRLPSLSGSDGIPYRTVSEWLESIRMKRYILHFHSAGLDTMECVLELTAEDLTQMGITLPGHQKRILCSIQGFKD
Chain of DCLK2 (Q8N568 whole entry): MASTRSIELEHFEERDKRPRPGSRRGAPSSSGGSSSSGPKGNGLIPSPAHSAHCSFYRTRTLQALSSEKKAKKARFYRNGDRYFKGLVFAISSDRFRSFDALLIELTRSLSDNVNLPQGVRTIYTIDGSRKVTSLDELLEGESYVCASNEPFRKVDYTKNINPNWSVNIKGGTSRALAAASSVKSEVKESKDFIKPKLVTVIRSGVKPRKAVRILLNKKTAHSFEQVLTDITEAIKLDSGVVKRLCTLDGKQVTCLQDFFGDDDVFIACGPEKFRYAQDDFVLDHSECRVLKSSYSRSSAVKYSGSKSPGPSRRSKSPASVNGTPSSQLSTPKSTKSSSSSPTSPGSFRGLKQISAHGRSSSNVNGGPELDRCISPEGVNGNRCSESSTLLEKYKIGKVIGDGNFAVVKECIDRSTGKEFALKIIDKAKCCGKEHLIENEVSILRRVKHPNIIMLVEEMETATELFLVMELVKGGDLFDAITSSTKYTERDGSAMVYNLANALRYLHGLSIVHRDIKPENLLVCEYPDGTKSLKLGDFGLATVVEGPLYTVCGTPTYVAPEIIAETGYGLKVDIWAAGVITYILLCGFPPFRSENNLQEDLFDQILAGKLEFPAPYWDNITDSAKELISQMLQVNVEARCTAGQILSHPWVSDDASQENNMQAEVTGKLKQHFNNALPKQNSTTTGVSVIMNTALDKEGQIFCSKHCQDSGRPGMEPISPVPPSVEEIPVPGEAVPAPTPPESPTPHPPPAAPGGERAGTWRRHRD
Chain of EPHA4 (P54764 whole entry): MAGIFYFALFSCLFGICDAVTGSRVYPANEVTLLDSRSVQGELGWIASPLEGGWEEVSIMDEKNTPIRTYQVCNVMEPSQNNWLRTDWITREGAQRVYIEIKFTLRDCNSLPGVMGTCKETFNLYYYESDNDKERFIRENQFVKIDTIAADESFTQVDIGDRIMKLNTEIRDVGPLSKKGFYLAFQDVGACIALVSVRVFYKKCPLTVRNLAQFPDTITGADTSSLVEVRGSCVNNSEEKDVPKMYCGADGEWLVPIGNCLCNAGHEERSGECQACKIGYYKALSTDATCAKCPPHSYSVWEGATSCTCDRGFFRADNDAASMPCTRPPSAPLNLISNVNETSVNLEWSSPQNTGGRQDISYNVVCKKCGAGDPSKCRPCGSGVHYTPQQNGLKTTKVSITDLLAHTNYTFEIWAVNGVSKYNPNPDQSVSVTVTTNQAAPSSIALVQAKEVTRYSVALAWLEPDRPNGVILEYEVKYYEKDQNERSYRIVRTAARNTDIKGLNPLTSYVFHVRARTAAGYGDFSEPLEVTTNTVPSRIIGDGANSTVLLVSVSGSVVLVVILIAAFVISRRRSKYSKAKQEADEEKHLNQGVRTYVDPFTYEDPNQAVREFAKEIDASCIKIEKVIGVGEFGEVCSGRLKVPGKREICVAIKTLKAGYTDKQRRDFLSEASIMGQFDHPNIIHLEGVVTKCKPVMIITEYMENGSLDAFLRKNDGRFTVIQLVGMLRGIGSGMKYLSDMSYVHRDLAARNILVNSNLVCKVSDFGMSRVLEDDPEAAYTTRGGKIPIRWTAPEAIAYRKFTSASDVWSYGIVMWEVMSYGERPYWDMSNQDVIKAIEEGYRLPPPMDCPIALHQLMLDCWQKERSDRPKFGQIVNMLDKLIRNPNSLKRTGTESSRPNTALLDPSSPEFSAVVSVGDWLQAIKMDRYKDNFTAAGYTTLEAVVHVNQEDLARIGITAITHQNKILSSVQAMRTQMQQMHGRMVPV
T2 sequence (Q15418 whole entry): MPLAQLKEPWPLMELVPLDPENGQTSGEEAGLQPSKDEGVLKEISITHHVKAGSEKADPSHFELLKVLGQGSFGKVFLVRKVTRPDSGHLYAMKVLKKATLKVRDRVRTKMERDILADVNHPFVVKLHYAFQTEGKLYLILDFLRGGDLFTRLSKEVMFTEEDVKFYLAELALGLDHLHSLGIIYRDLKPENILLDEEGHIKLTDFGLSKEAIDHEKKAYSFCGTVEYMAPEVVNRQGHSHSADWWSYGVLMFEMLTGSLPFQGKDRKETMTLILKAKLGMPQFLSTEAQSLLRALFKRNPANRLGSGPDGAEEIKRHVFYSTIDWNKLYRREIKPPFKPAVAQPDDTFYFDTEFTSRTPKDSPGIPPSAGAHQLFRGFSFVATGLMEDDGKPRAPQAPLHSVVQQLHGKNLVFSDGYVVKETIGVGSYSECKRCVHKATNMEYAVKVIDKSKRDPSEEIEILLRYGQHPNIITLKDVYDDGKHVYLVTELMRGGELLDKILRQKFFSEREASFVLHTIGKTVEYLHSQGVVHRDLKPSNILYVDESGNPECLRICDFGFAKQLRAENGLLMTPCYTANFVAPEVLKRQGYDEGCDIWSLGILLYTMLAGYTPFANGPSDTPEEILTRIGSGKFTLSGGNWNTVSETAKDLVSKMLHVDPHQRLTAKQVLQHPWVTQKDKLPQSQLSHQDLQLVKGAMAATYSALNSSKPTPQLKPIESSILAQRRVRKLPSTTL
Chain of MAPK1 (P28482 whole entry): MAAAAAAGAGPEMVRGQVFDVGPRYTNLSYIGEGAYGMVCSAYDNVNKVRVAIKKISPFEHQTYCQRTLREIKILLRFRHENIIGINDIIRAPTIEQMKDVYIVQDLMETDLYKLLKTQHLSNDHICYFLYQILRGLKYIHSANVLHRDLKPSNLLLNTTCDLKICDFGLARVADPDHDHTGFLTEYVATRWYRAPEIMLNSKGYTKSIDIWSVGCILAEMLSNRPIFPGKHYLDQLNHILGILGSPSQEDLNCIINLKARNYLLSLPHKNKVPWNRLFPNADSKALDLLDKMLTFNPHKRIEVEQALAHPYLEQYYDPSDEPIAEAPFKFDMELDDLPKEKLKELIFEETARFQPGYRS
T1 sequence (P35626 whole entry): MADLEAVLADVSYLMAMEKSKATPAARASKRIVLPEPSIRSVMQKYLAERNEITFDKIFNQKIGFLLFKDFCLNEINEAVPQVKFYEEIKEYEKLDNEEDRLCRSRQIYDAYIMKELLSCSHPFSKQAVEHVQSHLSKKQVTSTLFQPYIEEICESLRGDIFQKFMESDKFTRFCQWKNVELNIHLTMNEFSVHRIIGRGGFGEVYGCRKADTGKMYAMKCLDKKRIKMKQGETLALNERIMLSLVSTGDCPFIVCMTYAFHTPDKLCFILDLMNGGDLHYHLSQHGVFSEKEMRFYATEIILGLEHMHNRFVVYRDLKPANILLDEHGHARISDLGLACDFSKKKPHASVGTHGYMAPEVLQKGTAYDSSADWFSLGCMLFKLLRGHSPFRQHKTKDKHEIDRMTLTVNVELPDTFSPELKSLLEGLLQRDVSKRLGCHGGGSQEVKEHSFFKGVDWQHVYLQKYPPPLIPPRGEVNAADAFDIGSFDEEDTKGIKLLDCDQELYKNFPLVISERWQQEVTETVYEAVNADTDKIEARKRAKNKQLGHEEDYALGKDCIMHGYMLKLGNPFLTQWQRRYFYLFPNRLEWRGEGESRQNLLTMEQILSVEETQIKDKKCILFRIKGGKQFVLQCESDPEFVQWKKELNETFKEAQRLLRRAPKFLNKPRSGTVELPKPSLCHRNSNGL

Structure (SMILES): Oc1ccc(C2=Cc3ccc(O)cc3OC2)cc1 [compound 1, idronoxil]
- remaining binding at 10 µM [1]: 99%
- remaining binding at 10 µM [2]: 74%
- remaining binding at 10 µM [3]: 75%
- remaining binding at 10 µM [4]: 77%
- remaining binding at 10 µM [5]: 85%
- remaining binding at 10 µM [6]: 74%
- remaining binding at 10 µM [7]: 71%
- remaining binding at 10 µM [8]: 73%
- remaining binding at 10 µM [9]: 84%
- remaining binding at 10 µM [10]: 85%
- remaining binding at 10 µM [11]: 69%
- remaining binding at 10 µM [12]: 79%
- remaining binding at 10 µM [13]: 97%
- remaining binding at 10 µM [14]: 69%
- remaining binding at 10 µM [15]: 100%
- remaining binding at 10 µM [16]: 89%
- remaining binding at 10 µM [17]: 54%
- remaining binding at 10 µM [18]: 84%
- remaining binding at 10 µM [19]: 100%
- remaining binding at 10 µM [20]: 54%

Source: PMC10507085, “Pharmacological inhibition of TBK1/IKKε blunts immunopathology in a murine model of SARS-CoV-2 infection” (Nature Communications, 2023)
